Like-named read-outs stand apart in the source and are kept apart here. Marks after values point to notes of the source that are not given here.
Columns and labels:
RBC AChE [1] = conditions: ref USEPA 2016, cited from earlier work; for Reported BMDL10 from EPA (pups): RBC AChE inhibition in female rat pups (PND11)
RBC AChE [2] = experiment: TEF-coded PBK model-based reverse dosimetry, predicted in vivo RBC AChE inhibition, rat; conditions: for Predicted BMDL10 for rat pups: adult rat predicted BMDL10 corrected by factor 2 (Padilla et al. 2004)
Description: The PBK model for DZN was developed based on the model from Poet et al. ([2004]) with some modifications for both rat and human. The model contains a submodel for the metabolite DZO and was defined to include compartments for rapidly perfused tissue, slowly perfused tissue, liver, fat and blood for both the parent compound DZN and its metabolite DZO. The model also contains a compartment to describe the urinary elimination of the metabolites IMHP and DAP (sum of DEP and DETP). In the currently developed model, oral exposure was included since we aimed at defining a POD for risk assessment of exposure via food and drinking water, and intravenous (IV) exposure was included for model evaluation. The fractional absorption (fa) was set equal to literature reported values, being 0.8 in rat (Poet et al. [2004]) and 0.66 in human (Garfitt et al. [2002]) and applied to the overall dose. The absorption of DZN from the stomach into the liver was described using a two-compartment gastrointestinal tract model as reported by Poet et al. ([2004]), with a first-order rate constant for absorption of DZN from the stomach into the liver (KaS) of 0.1 /h for rat and 0.32/h for human (Poet et al. [2004]), a first-order rate constant for transfer of DZN from the stomach into the intestine (KsI) of 0.48/h for both rat and human, a first-order rate constant for absorption DZN from the intestine into the liver (KaI) of 0.59/h for both rat and human, (Poet et al. [2004]), and Ke values for the elimination of IMHP or DAP (sum of DEP and DETP) into the urine amounting to Ke IMHP = 0.29/h, Ke DEP = 0.29 /h and Ke DETP = 0.29/h for rat (Poet et al. [2004]), and Ke IMHP = 12/h, Ke DEP = 12 /h and Ke DETP = 12/h for human (Garfitt et al. [2002]; Poet et al. [2004]).
The physiological parameters for rat and human were obtained from Brown et al. ([1997]) as well as Gearhart et al. ([1990]), and are summarised in Table 1. […] The kinetic parameters for biotransformation of DZN in rat and human were obtained by conducting in vitro liver microsomal/plasma incubations as described in the section “In vitro metabolic incubations for deriving kinetic parameters”. […] The first-pass metabolism of DZN by the intestine was not taken into account in the current model because the metabolic conversion in the intestine derived from the conversion in incubations with intestinal microsomes upon scaling to the whole organ, appeared less than 5% of that obtained in a similar way for the liver (data not shown). […] The Km values determined in vitro were assumed to be equal to in vivo Km values. […]

CYP450 = conditions: ref Kappers et al. 2001; cited from earlier work
brain and RBC AChE = conditions: cited from earlier work
[3] = assay type: in vitro ADME; conditions: intestinal microsomes, data not shown
Experimental: The physiological parameters for rat and human were obtained from Brown et al. ([1997]) as well as Gearhart et al. ([1990]), and are summarised in Table 1. […] The kinetic parameters for biotransformation of DZN in rat and human were obtained by conducting in vitro liver microsomal/plasma incubations as described in the section “In vitro metabolic incubations for deriving kinetic parameters”. […] The first-pass metabolism of DZN by the intestine was not taken into account in the current model because the metabolic conversion in the intestine derived from the conversion in incubations with intestinal microsomes upon scaling to the whole organ, appeared less than 5% of that obtained in a similar way for the liver (data not shown). […] To scale the in vitro Vmax values to the in vivo situation, the following scaling factors were used; 35 mg microsomal protein/g liver for rat hepatic metabolism (Medinsky et al. [1994]), 32 mg microsomal protein/g liver for human hepatic metabolism (Barter et al. [2007]), 77 mg plasma protein/ml plasma (total plasma protein concentration) for human plasma metabolism, and 60 mg plasma protein/ml plasma (total plasma protein concentration) for rat plasma metabolism. Plasma volume in rat and human were assumed as 55% of their corresponding blood volume (O'Neil [1999]). The Km values determined in vitro were assumed to be equal to in vivo Km values. […]

Compound: CCOP(=S)(OCC)Oc1cc(C)nc(C(C)C)n1 [DZN, O,O-diethyl O-2-isopropyl-6-methylpyrimidin-4-yl phosphorothioate]
- Reported BMDL10 from EPA (pups) (RBC AChE [1]): 3 mg/kg bw
- Reported BMDL10 from EPA (pups) (RBC AChE [1]; listed as Diazinon): 3.0 mg/kg bw
- BMDL10 for inhibition of RBC AChE (RBC AChE [1]; male adult rats, oral DZN): 4.804 mg/kg bw/day
- Reported BMDL10 from EPA (adult rat) (RBC AChE [1]): 4.8 mg/kg bw
- corrected POD (rat pups) higher than POD used by the EPA (RBC AChE [2]): 2.1 fold
- predicted rat BMDL10 higher than reported BMDL10 for inhibition of RBC AChE (RBC AChE [2]): 2.6 fold
- Predicted BMDL10 for rat pups (RBC AChE [2]): 6.3 mg/kg bw
- Predicted BMDL10 for rat pups (RBC AChE [2]; listed as Diazinon): 6.3^a mg/kg bw
- difference in DZO formation from DZN between 15 human liver samples (CYP450): 6- to 59 fold
- overall NOAEL from three rat studies (brain and RBC AChE; EFSA, ref EFSA 2006): 2.5 mg/kg bw
- LOAEL, inhibition of brain and RBC AChE activity in female rat (brain and RBC AChE; JMPR, ref JMPR 2016): 25 mg/kg bw
- NOAEL, acute (neuro)toxicity study in rats (brain and RBC AChE; JMPR, ref JMPR 2016): 2.5 mg/kg bw
- Reported NOAEL from EFSA and JMPR (adult rat) (brain and RBC AChE; ref EFSA 2006, JMPR 2016): 2.5 mg/kg bw
- metabolic conversion in the intestine scaled to the whole organ, relative to that for the liver [3]: less than 5%

Reference: article PMC8113213, “Physiologically based kinetic modelling based prediction of in vivo rat and human acetylcholinesterase (AChE) inhibition upon exposure to diazinon” (Archives of Toxicology, 2021)
